Key:
Experiment in all cases: Tyrosine kinase inhibition assay
Assay type in all cases: biochemical
Settings in all cases: single concentration 1.0 μM, read-out: percent inhibition
DDR2 = target: T1, DDR2 (Homo sapiens, UniProt Q16832)
T1 sequence (Q16832 22-855): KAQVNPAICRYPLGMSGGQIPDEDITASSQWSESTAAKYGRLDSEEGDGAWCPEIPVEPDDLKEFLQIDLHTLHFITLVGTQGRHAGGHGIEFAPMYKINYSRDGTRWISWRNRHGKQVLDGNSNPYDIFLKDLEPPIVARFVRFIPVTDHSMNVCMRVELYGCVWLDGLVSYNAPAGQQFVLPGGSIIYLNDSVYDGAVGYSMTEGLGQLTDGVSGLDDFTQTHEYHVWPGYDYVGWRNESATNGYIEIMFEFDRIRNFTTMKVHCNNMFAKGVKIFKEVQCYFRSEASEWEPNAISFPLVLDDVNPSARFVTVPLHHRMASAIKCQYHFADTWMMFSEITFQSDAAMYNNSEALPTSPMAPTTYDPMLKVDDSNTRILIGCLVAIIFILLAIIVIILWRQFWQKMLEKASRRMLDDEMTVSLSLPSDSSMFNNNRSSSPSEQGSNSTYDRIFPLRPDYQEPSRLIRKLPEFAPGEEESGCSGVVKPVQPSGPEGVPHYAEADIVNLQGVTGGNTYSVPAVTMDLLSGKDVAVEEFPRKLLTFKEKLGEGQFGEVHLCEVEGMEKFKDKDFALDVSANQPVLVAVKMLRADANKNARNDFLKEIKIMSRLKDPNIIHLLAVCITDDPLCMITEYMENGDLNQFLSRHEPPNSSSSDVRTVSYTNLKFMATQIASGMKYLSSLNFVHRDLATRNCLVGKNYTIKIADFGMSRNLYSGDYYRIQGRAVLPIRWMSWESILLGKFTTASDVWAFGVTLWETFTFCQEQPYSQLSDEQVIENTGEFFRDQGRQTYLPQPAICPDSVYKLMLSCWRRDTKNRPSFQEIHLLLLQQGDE
Outline: (§1)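 Single-point screen, 1.0 μM compound, 1% DMSO final; ATP at apparent Km. Buffer: 50 mM HEPES pH 7.5, 0.01% BRIJ-35, 10 mM MgCl2, 1 mM EGTA. Z′-LYTE readout, % inhibition; hit = >80%.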

EPHB3 = target: T2, EPHB3 (Homo sapiens, UniProt P54753)
T2 sequence (P54753 34-998): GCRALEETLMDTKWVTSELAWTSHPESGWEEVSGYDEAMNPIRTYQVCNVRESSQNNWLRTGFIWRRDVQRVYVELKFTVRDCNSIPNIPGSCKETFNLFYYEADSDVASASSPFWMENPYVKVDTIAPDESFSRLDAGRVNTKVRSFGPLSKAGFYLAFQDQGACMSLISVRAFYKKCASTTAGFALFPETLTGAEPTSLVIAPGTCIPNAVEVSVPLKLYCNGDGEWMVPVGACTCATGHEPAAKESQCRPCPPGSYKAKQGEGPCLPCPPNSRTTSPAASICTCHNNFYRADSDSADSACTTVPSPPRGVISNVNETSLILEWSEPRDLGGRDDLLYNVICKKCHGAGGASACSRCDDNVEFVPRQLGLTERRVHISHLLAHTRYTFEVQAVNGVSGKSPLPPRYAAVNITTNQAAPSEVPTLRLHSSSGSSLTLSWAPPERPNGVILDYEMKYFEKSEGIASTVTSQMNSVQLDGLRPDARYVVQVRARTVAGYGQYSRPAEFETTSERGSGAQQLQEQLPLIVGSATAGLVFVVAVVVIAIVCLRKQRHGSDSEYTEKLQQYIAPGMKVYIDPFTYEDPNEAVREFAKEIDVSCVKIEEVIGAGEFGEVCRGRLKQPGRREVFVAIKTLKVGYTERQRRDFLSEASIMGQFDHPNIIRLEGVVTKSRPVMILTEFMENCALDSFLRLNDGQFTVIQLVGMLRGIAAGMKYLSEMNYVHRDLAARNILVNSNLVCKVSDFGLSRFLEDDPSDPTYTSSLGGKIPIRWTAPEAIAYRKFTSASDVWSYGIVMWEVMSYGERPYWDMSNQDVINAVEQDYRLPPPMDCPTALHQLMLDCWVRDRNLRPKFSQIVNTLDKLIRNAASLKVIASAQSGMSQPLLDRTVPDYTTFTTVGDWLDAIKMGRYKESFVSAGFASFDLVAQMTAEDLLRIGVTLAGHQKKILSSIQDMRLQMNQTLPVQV
Outline: as §1

MATK (HYL) = target: T3, MATK (HYL) (Homo sapiens, UniProt P42679)
T3 sequence (P42679 1-507): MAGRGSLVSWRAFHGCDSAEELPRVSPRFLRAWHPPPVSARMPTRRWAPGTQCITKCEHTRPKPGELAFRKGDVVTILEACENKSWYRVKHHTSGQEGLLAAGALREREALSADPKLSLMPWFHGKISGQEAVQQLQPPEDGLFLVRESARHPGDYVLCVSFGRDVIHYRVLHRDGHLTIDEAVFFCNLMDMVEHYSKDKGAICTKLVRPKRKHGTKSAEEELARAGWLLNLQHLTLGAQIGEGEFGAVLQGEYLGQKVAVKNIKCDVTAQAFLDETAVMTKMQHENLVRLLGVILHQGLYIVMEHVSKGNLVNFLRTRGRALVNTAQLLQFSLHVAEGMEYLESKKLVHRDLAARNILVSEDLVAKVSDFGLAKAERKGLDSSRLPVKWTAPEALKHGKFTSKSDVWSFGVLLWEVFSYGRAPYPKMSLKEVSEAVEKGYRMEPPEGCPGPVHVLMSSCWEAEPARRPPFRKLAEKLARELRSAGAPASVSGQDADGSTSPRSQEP
Outline: as §1

| SMILES | inhibition at 1 µM (DDR2) [%] | inhibition at 1 µM (EPHB3) [%] | inhibition at 1 µM (MATK (HYL)) [%] |
| --- | --- | --- | --- |
| COc1cc2nccc(Oc3ccc(NC(=O)C4(C(=O)Nc5ccc(F)cc5)CC4)cc3)c2cc1OC [Cabozantinib, reference compound] | 100 | 54 | 10 |
| COc1cc2nccc(Oc3ccc(NC(=O)C4(NC(=O)c5ccc(F)cc5)CC4)cc3F)c2cc1OC [Cbo-02, N-(1-((4-((6,7-diMethoxyquinolin-4-yl)oxy)-3-fluorophenyl)carbamoyl)cyclopropyl)-4-fluorobenzamide] | 32 | 4 | 7 |
| COc1cc2nccc(Oc3ccc(NC(=O)C4(NC(=O)c5ccc(F)cc5)CC4)cc3F)c2cc1Oc1ccc(N)cc1F [Cbo-10] | 51 | 6 | 5 |
| COc1cc2nccc(Oc3ccc(NC(=O)C4(NC(=O)c5ccc(F)cc5)CC4)cc3F)c2cc1Oc1c(F)cc(N)cc1F [Cbo-14] | 60 | 6 | 8 |
| COc1cc2nccc(Oc3ccc(NC(=O)C4(C(=O)Nc5ccc(F)cc5)CC4)cc3F)c2cc1Oc1ccc(N)cc1F [Cbo-23] | 91 | 55 | 8 |
